{
  "source": "paper PMC5447021",
  "about": "“TNF Lectin-Like Domain Restores Epithelial Sodium Channel Function in Frameshift Mutants Associated with Pseudohypoaldosteronism Type 1B” (Frontiers in Immunology, 2017)",
  "key": {"[1]": {"system": "αR438fs", "experiment": "Membrane abundance of αR438fs", "assay_type": "cell-based, human", "conditions": "200 nM, relative to WT control (=1)", "experimental": "Cell surface biotinylation was performed as previously described ([26]). In brief, A549 cells or transiently transfected HEK-293 cells were grown in 10 cm dishes in 37°C, 5% CO2 incubator in DMEM medium supplemented with 5% FBS. […] Medium was aspirated, and then cells were washed twice with 10 ml ice-cold phosphate-buffered saline (PBS), covered with 2.5 mg EZ-Link Sulfo-NHS-SS-Biotin (Thermo Scientific, Rockford, USA), dissolved in 10 ml ice-cold PBS, and incubated at 4°C with gentle agitation for 30 min. Fifty milliliters of quenching solution were added to cells; then cells were scraped in solution and transferred to fresh 50 ml tube. Cell suspension was centrifuged at 500 × g for 3 min. Supernatant was discarded, and 5 ml of Tris-buffered saline (TBS) was added to the cell pellet. The cell pellet was resuspended and centrifuged at 500 × g for 3 min. Supernatant was discarded and cell pellet was resuspended in lysis buffer containing protease inhibitor cocktail (10 µM pepstatin A, 10 µM phenylmethylsulfonyl fluoride, and 10 µM leupeptin) and transferred to fresh 1.5 ml centrifuge tube. Cell pellet was then homogenized on ice by ultrasonication using 1 s bursts and incubated on ice for at least 30 min. Intact cells and nuclei were pelleted by centrifugation at 10,000 × g for 2 min under cooling conditions. […] Exposed films were scanned and quantified using ImageJ (NIH, MD, USA). […]"}, "[2]": {"target": "T1, δ-hENaC (Homo sapiens, UniProt P51172)", "T1 construct": "expressed in transfected cells; host or cells: HEK-293", "T1 sequence (P51172 1-638 isoform P51172-1)": "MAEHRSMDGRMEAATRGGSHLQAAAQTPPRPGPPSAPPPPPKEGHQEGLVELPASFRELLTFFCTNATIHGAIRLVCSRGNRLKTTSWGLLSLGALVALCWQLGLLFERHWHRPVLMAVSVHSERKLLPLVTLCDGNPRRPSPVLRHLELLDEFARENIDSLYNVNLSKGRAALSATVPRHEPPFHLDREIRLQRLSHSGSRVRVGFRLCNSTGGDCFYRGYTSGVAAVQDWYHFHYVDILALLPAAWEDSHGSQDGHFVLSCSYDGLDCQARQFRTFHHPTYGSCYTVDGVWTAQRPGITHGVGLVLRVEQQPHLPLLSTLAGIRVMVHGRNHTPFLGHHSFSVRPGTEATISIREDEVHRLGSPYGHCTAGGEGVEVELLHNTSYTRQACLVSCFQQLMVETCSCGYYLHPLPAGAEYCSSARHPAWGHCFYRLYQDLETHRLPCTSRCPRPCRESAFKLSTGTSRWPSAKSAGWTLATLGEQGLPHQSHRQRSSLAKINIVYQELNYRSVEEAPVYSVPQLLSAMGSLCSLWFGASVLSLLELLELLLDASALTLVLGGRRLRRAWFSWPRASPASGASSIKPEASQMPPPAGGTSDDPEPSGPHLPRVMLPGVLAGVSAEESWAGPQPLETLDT", "parameters": "method as in PMID 24077967", "conditions": "δ-hENaC alone, control current 60.6 ± 2.5 pA, mean ± S.E.; cited from earlier work"}, "[3]": {"system": "A549 cells", "conditions": "cited from earlier work"}, "[4]": {"system": "V567A/E568A and V567A/E568A/E571A α-ENaC mutants", "conditions": "cited from earlier work", "description": "Lucas et al. ([31]) identified positions V567, E568, and E571 in the α-subunit as the crucial sites for binding of the lectin-like domain of TNF. They generated alanine replacement mutants in this region of α-ENaC and examined its interaction with the TIP peptide. […] In fact, this applies to all the frameshift mutants examined here."}},
  "data": [
    {"smiles": "C[C@@H]1NC(=O)CNC(=O)[C@H](CCC(=O)O)NC(=O)[C@@H]2CCCN2C(=O)[C@H]([C@@H](C)O)NC(=O)[C@H](CCC(=O)O)NC(=O)[C@H](CCCNC(=N)N)NC(=O)[C@H](CCC(N)=O)NC(=O)CNC(=O)[C@@H](N)CSSC[C@@H](C(=O)O)NC(=O)[C@H](Cc2ccc(O)cc2)NC(=O)[C@H](Cc2c[nH]c3ccccc23)NC(=O)[C@@H]2CCCN2C(=O)[C@H](CCCCN)NC(=O)[C@H](C)NC(=O)[C@H](CCC(=O)O)NC1=O", "note": "[solnatide, L-cysteine, L-cysteinylglycyl-L-glutaminyl-L-arginyl-L-α-glutamyl-L-threonyl-L-prolyl-L-α-glutamylglycyl-L-alanyl-L-α-glutamyl-L-alanyl-L-lysyl-L-prolyl-L-tryptophyl-L-tyrosyl-, cyclic (1→17)-disulfide]", "values": [
      {"measurement": "Membrane abundance, solnatide 5 min", "setting": "[1]; 5 min, own control 0.90 ± 0.07, p < 0.001 vs control", "result": "1.39 ± 0.14"},
      {"measurement": "Membrane abundance, solnatide 10 min", "setting": "[1]; 10 min, own control 0.90 ± 0.07", "result": "0.87 ± 0.10"},
      {"measurement": "Maximal induced current, solnatide", "setting": "[2]", "result": "15.6 ± 7.9", "unit": "pA"},
      {"measurement": "Increase in single channel parameters after PNGase F", "setting": "[3]; A549 cells, PNGase F pretreated", "result": "completely abolished in PNGase F pretreated cells"},
      {"measurement": "Single channel open probability, mean open time, number and duration of bursts", "setting": "[3]; A549 cells", "result": "significantly increased"},
      {"measurement": "Effect on current, A549 cells", "setting": "[3]; endogenous α-, β-, γ-, δ-subunits", "result": "current activating effect"},
      {"measurement": "Binding capacity", "setting": "[4]; double V567A/E568A and triple V567A/E568A/E571A α-ENaC mutants", "result": "reduced binding capacity"},
      {"measurement": "Increase in Po", "setting": "[4]; double and triple α-ENaC TM2 alanine mutants vs WT ENaC", "result": "abolition of the increase in Po"}
    ]}
  ]
}
